This note sets out measurements from US10975068B2, “6-aminopyridin-3-yl thiazoles as modulators of RORγT” (Janssen Pharmaceutica NV, priority 2016, dated 2021).

By Kd is commonly meant the equilibrium constant for the complex coming apart. A word on the IC50: it is the concentration that gives 50% inhibition. Broadly, the inhibition is the change of the read-out against control, counted positive when it falls.

Like-named read-outs stand apart in the source and are kept apart here.

The target of assay [1] is human RORγt ligand binding domain (RORγt LBD) (Homo sapiens (Human), UniProt P51449). The assay can be described thus: RORγt ThermoFluor® assay (thermal shift binding). The method, boiled down:
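His-tagged human RORγt LBD (0.065 mg/mL) with 60 μM 1,8-ANS in 100 mM Hepes pH 7.0, 10 mM NaCl, 2.5 mM GSH, 0.002% Tween-20 was heated at 1 °C/min.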

In assay [2] the target is full-length human RORγt (Homo sapiens (Human), UniProt P51449). Briefly: RORγt (full-length human) reporter assay, Conditions B or C. It is filed as cell-based. The conditions noted are these: for RORγt (FL) Reporter Assay B or C, % inhibition (value marked *): marked *: footnote not given; for inhibition at 3 µM: at 3 μM compound concentration; for inhibition at 3 µM / inhibition at 1 µM: read-out: RORγt (FL) Reporter Assay B or C, % inhibition; for inhibition at 6 µM: read-out: RORγt (FL) Reporter Assay B or C, % inhibition @ 6 μM, Conditions B or C; for inhibition at 1 µM: at 1 μM compound concentration. The method, boiled down:
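HEK293T cells transiently co-transfected with GAL4-DBD–full-length human RORγt (nt 142-1635, NM_001001523.1) plus GAL4-firefly and CMV-Renilla luciferase reporters; compounds added 4-6 h post-transfection for 16-20 h in 1.3% FBS, 0.1% DMSO. Firefly signal normalized to DMSO and saturating reference compound, then to Renilla; IC50 from concentration plots.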

Setting [3] is: read-out: ThermoFluor® Assay, Kd.
Setting [4] is: Conditions B or C, read-out: RORγt (FL) Reporter Assay B or C, IC50.
Where [5] appears, read: read-out: RORγt (FL) Reporter Assay B or C, IC50.

Sequence of full-length human RORγt (P51449 other isoform, or with tags, fused parts or gaps): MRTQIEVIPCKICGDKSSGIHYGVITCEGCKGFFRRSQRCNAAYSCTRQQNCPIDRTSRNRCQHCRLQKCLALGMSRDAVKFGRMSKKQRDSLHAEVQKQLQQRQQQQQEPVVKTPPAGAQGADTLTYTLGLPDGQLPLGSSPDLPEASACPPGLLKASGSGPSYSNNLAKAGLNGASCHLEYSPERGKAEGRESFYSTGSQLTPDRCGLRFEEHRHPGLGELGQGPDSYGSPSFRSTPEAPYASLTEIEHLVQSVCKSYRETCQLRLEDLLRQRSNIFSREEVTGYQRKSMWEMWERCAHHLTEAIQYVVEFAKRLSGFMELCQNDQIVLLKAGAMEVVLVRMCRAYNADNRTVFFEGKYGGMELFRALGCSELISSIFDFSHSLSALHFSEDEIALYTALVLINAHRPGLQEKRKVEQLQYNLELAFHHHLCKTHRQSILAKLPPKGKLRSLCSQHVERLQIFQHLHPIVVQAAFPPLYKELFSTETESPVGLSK
Sequence of human RORγt ligand binding domain (RORγt LBD) (P51449 other isoform, or with tags, fused parts or gaps): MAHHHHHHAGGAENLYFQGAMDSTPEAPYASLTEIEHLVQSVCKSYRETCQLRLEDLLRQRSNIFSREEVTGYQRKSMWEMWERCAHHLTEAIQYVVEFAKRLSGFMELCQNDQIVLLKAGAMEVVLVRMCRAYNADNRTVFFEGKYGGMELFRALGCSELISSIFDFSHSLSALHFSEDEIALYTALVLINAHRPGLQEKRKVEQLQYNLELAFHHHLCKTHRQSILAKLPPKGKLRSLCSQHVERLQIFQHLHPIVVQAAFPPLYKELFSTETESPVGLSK

Regarding `C[C@H](Nc1cc(C(F)F)c(-c2sc(C(=O)N[C@H]3C[C@@H]3O)nc2C(=O)N2CCC[C@@H]2C)cn1)C(F)(F)F` (single isomer, unassigned) [Example 158, 5-(4-(Difluoromethyl)-6-(((S)-1,1,1-trifluoropropan-2-yl)amino)pyridin-3-yl)-N-((1S*,2S*)-2-hydroxycyclopropyl)-4-((S)-2-methylpyrrolidine-1-carbonyl)thiazole-2-carboxamide], the Kd in assay [1] (setting [3]) came out at 17 nM. For the same compound, the “RORγt (FL) Reporter Assay B or C, % inhibition (value marked *)” value (from here on “RORγt … % inhibition (value marked *)”) in assay [2] (Conditions B or C) is reported as 96* %. The IC50 in assay [2] (setting [4]) came to 310 nM.
For `C[C@H]1CC(F)(F)CN1C(=O)c1nc(C(=O)NC2CCS(=O)(=O)CC2)sc1-c1cnc(NC(C)(C)C)cc1C(F)F` [Example 431, 5-[6-(tert-Butylamino)-4-(difluoromethyl)-3-pyridyl]-4-[(2S)-4,4-difluoro-2-methyl-pyrrolidine-1-carbonyl]-N-(1,1-dioxothian-4-yl)thiazole-2-carboxamide], the Kd in assay [1] (setting [3]) turned out to be 0.36 nM. Besides, the inhibition at 3 µM in assay [2] was found to be 107%. Besides, in assay [2] (setting [5]), the IC50 amounted to 20 nM.
On the same counts, the results for `CC[C@H](Nc1cc(C(F)F)c(-c2sc(C(=O)N3CC4CCC(C3)O4)nc2C(=O)N2CCC[C@@H]2C)cn1)C(F)(F)F` [Example 378, [5-[4-(Difluoromethyl)-6-[[(1S)-1-(trifluoromethyl)propyl]amino]-3-pyridyl]-2-(8-oxa-3-azabicyclo[3.2.1]octane-3-carbonyl)thiazol-4-yl]-[(2S)-2-methylpyrrolidin-1-yl]methanone] are 18 nM, 109% and 79 nM.
On the same counts, the results for `CC[C@H](Nc1cc(C(F)F)c(-c2sc(C(=O)NC3CN(S(C)(=O)=O)C3)nc2C(=O)N2CCC[C@@H]2C)cn1)C(F)(F)F` [Example 383, 5-[4-(Difluoromethyl)-6-[[(1S)-1-(trifluoromethyl)propyl]amino]-3-pyridyl]-4-[(2S)-2-methylpyrrolidine-1-carbonyl]-N-(1-methylsulfonylazetidin-3-yl)thiazole-2-carboxamide] are 2.6 nM, 108% and 92 nM.
Consider `CC[C@H](Nc1cc(C(F)F)c(-c2sc(C(=O)NCC(C)(C)O)nc2C(=O)N2CCC[C@@H]2C)cn1)C1CC1` (relative stereo) [Example 166], for which the dissociation constant (Kd) in assay [1] (setting [3]) stood at 4.7 nM. Also, in assay [2] (Conditions B or C), the “RORγt … % inhibition (value marked *)” value is reported as 94* %. Moreover, in assay [2] (setting [4]), the half-inhibitory concentration (IC50) was determined as 27 nM.
`C[C@H]1CC(F)(F)CN1C(=O)c1nc(C(=O)NCC(C)(C)O)sc1-c1cnc(NC2(C(F)(F)F)CCC2)cc1C(F)(F)F` [Example 100, (S)-4-(4,4-Difluoro-2-methylpyrrolidine-1-carbonyl)-N-(2-hydroxy-2-methylpropyl)-5-(4-(trifluoromethyl)-6-((1-(trifluoromethyl)cyclobutyl)amino)pyridin-3-yl)thiazole-2-carboxamide]: the Kd in assay [1] (setting [3]) was 0.39 nM. For the same compound, in assay [2] (Conditions B or C), the “RORγt … % inhibition (value marked *)” value is 108* %. Besides, the IC50 in assay [2] (setting [4]) was found to be 14 nM.
As to `C[C@H]1CCCN1C(=O)c1nc(C(=O)NCC(C)(C)O)sc1-c1cnc(NC2CCCC2)cc1C(F)F` [Example 42, (S)-5-(6-(Cyclopentylamino)-4-(difluoromethyl)pyridin-3-yl)-N-(2-hydroxy-2-methylpropyl)-4-(2-methylpyrrolidine-1-carbonyl)thiazole-2-carboxamide], the dissociation constant (Kd) in assay [1] (setting [3]) came to 9.3 nM. In addition, the half-maximal inhibitory concentration (IC50) in assay [2] (setting [4]) worked out at 42 nM. Also, in assay [2], the inhibition at 6 µM amounted to 111%.
`C[C@H](Nc1cc(C(F)(F)F)c(-c2sc(C(=O)N[C@H]3COC[C@H]3O)nc2C(=O)N2C3CCC2CC3)cn1)C(F)(F)F` (single isomer, unassigned) [Example 255, 4-((1s,4s)-7-Azabicyclo[2.2.1]heptane-7-carbonyl)-N-((3S*,4S*)-4-hydroxytetrahydrofuran-3-yl)-5-(4-(trifluoromethyl)-6-(((S)-1,1,1-trifluoropropan-2-yl)amino)pyridin-3-yl)thiazole-2-carboxamide]: the Kd in assay [1] (ThermoFluor® Assay, Kd) turned out to be 16 nM. In assay [2] (RORγt (FL) Reporter Assay B or C, IC50), this compound returned a half-inhibitory concentration (IC50) of 160 nM. Moreover, the inhibition at 1 µM in assay [2] is 78%.
With `C[C@@H](O)[C@@H](C)NC(=O)c1nc(C(=O)N2CCC[C@@H]2C)c(-c2cnc(NC(C)(C)C)cc2C(F)(F)F)s1` (relative stereo) [Example 237, 5-(6-(tert-Butylamino)-4-(trifluoromethyl)pyridin-3-yl)-N-((2R*,3R*)-3-hydroxybutan-2-yl)-4-((S)-2-methylpyrrolidine-1-carbonyl)thiazole-2-carboxamide], in assay [1] (setting [3]), the Kd turned out to be 2.3 nM. The “RORγt … % inhibition (value marked *)” value in assay [2] (Conditions B or C) is given as 101* %. Besides, in assay [2] (setting [4]), the concentration for half-maximal inhibition (IC50) was found to be 31 nM.
Regarding `C[C@H](NC(=O)c1nc(C(=O)N2CCC[C@@H]2C)c(-c2cnc(NC(C)(C)C)cc2C(F)F)s1)C(C)(C)O` [Example 270, 5-[6-(tert-Butylamino)-4-(difluoromethyl)-3-pyridyl]-N-[(1S)-2-hydroxy-1,2-dimethyl-propyl]-4-[(2S)-2-methylpyrrolidine-1-carbonyl]thiazole-2-carboxamide], in assay [1] (setting [3]), the Kd was 3.5 nM. In assay [2], the inhibition at 3 µM was 102%. For the same compound, the IC50 in assay [2] (setting [5]) was determined as 5.1 nM.
With `C[C@H]1CCCN1C(=O)c1nc(C(=O)NCC(C)(C)O)sc1-c1cnc(N[C@H]2CCCC2(F)F)cc1C(F)(F)F` (single isomer, unassigned) [Example 279, 5-(6-(((S*)-2,2-Difluorocyclopentyl)amino)-4-(trifluoromethyl)pyridin-3-yl)-N-(2-hydroxy-2-methylpropyl)-4-((S)-2-methylpyrrolidine-1-carbonyl)thiazole-2-carboxamide], the equilibrium dissociation constant (Kd) in assay [1] (setting [3]) amounted to 18 nM. Further, the inhibition at 1 µM in assay [2] came out at 109%. In addition, the concentration for half-maximal inhibition (IC50) in assay [2] (setting [5]) turned out to be 62 nM.
Turning to `C[C@H](Nc1cc(C(F)F)c(-c2sc(C(=O)N[C@@H]3CCC[C@H]3O)nc2C(=O)N2CC(F)(F)C[C@@H]2C)cn1)C(F)(F)F` [Example 420, 4-[(2S)-4,4-Difluoro-2-methyl-pyrrolidine-1-carbonyl]-5-[4-(difluoromethyl)-6-[[(1S)-2,2,2-trifluoro-1-methyl-ethyl]amino]-3-pyridyl]-N-[(1R,2R)-2-hydroxycyclopentyl]thiazole-2-carboxamide], in assay [1] (setting [3]), the dissociation constant (Kd) amounted to 0.73 nM. Further, the inhibition at 3 µM in assay [2] was determined as 103%. Also, in assay [2] (setting [5]), the IC50 was 32 nM.
For `C[C@H]1CCCCN1C(=O)c1nc(C(=O)NCC(C)(C)O)sc1-c1cnc(N[C@@H]2CCCCC2(F)F)cc1C(F)(F)F` (relative stereo) [Example 31, 5-(6-(((R*)-2,2-Difluorocyclohexyl)amino)-4-(trifluoromethyl)pyridin-3-yl)-N-(2-hydroxy-2-methylpropyl)-4-((S)-2-methylpiperidine-1-carbonyl)thiazole-2-carboxamide], the dissociation constant Kd in assay [1] (setting [3]) is 0.15 nM. Further, the IC50 in assay [2] (setting [4]) is 4.5 nM. For the same compound, the inhibition at 6 µM in assay [2] came out at 111%.
With `C[C@H](Nc1cc(C(F)F)c(-c2sc(C(=O)N[C@H]3CCC[C@@H]3O)nc2C(=O)N2CCC[C@@H]2C)cn1)C(F)(F)F` [Example 285, 5-(4-(Difluoromethyl)-6-(((S)-1,1,1-trifluoropropan-2-yl)amino)pyridin-3-yl)-N-((1S,2S)-2-hydroxycyclopentyl)-4-((S)-2-methylpyrrolidine-1-carbonyl)thiazole-2-carboxamide], the Kd in assay [1] (setting [3]) is 2.9 nM. For the same compound, in assay [2], the inhibition at 3 µM amounted to 104%. Further, the IC50 in assay [2] (setting [5]) is 64 nM.
On to `C[C@H]1CCCCN1C(=O)c1nc(C(=O)NCC(C)(C)O)sc1-c1cnc(NC(C)(C)C2CC2)cc1C(F)F` [Example 88, (S)-5-(6-((2-Cyclopropylpropan-2-yl)amino)-4-(difluoromethyl)pyridin-3-yl)-N-(2-hydroxy-2-methylpropyl)-4-(2-methylpiperidine-1-carbonyl)thiazole-2-carboxamide], for which the Kd in assay [1] (setting [3]) is 0.19 nM. In addition, in assay [2] (Conditions B or C), the “RORγt … % inhibition (value marked *)” value is 138* %. The concentration for half-maximal inhibition (IC50) in assay [2] (setting [4]) is 10 nM.
Take `C[C@H](NC(=O)c1nc(C(=O)N2CCC[C@@H]2C)c(-c2cnc(NC(C)(C)C)cc2C(F)(F)F)s1)[C@@H](C)O` (relative stereo) [Example 238, 5-(6-(tert-Butylamino)-4-(trifluoromethyl)pyridin-3-yl)-N-((2S*,3R*)-3-hydroxybutan-2-yl)-4-((S)-2-methylpyrrolidine-1-carbonyl)thiazole-2-carboxamide]: the dissociation constant (Kd) in assay [1] (setting [3]) came to 5.5 nM. Moreover, the “RORγt … % inhibition (value marked *)” value in assay [2] (Conditions B or C) is recorded as 92* %. In assay [2] (setting [4]), the IC50 stood at 29 nM.
Turning to `C[C@H]1CCCN1C(=O)c1nc(C(=O)N[C@H]2C[C@H](O)C2)sc1-c1cnc(NC2CCCC2)cc1C(F)F` [Example 74, 5-(6-(Cyclopentylamino)-4-(difluoromethyl)pyridin-3-yl)-N-((1r,3s)-3-hydroxycyclobutyl)-4-((S)-2-methylpyrrolidine-1-carbonyl)thiazole-2-carboxamide], the Kd in assay [1] (setting [3]) came out at 73 nM. For the same compound, in assay [2] (Conditions B or C), the “RORγt … % inhibition (value marked *)” value was 101* %. Further, the half-maximal inhibitory concentration (IC50) in assay [2] (setting [4]) turned out to be 32 nM.
